Experimental data reported in article PMC9661397 (Circulation, 2020).
One block for each compound: values may come before it.

What was measured:
[1] = system: C57BL/6J mice; assay: In vivo electrophysiology study, AF induced by burst pacing; parameters: species or system mouse; conditions: for AF inducibility: 25 mg·kg−1·d−1 IP for 4 weeks (28 days)
[2] = target: RIPK3 (Mus musculus, UniProt Q9QZL0); assay: KiNativ chemoproteomic kinase profiling in mouse heart lysate; type: binding; conditions: read-out: % inhibition of RIPK3
RIPK3, sequence (Q9QZL0 whole entry): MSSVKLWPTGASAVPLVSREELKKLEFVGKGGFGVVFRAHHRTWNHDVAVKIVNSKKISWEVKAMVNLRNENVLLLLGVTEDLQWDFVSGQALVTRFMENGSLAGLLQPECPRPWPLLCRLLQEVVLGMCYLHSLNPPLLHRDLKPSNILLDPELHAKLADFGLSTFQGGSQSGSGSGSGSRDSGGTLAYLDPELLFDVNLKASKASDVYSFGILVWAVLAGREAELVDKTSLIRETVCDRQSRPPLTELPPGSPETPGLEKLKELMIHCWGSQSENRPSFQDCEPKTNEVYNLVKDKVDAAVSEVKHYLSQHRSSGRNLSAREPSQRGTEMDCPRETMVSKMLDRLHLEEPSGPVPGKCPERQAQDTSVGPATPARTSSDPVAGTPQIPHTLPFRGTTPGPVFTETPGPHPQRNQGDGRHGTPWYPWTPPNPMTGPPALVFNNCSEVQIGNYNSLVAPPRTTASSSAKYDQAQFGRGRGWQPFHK

[3] = target: CSK (Mus musculus, UniProt P41241); assay: as above; type: binding
CSK, sequence (P41241 whole entry): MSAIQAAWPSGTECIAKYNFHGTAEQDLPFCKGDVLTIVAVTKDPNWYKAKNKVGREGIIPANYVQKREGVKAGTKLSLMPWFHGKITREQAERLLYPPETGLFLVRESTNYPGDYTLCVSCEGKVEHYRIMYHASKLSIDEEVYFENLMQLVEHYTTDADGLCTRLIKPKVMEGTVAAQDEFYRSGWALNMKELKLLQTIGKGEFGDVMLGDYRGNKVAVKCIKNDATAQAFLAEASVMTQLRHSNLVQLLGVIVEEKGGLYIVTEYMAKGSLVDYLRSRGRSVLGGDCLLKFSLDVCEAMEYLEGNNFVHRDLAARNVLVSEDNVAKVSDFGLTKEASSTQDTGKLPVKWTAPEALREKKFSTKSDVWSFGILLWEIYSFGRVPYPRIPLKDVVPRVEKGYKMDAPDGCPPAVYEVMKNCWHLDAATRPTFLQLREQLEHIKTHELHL

[4] = target: BTK (Mus musculus, UniProt P35991); assay: as above; type: binding; conditions: read-out: % inhibition of BTK
BTK, sequence (P35991 whole entry): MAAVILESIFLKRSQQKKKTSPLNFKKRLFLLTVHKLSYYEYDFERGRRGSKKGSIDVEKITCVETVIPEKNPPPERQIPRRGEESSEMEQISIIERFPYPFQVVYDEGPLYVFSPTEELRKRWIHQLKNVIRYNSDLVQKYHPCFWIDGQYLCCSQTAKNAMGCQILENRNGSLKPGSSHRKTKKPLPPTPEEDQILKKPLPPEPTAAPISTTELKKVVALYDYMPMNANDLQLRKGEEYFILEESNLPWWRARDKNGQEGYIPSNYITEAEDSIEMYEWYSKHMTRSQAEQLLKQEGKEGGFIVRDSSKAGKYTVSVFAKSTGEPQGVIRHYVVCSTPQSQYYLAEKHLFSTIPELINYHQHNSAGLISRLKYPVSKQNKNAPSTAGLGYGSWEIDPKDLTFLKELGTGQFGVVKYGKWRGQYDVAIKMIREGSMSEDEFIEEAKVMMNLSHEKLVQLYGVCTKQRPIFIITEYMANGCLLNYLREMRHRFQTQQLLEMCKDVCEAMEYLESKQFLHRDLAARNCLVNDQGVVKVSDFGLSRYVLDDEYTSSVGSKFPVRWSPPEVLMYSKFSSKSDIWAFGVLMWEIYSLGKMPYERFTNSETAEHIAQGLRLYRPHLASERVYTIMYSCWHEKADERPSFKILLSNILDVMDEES

[5] = system: Fn1, Col1a1, and Col3a1 mRNA; assay: Quantitative real-time PCR of fibrosis markers in LA tissue; type: in vivo, mouse; conditions: 25 mg/kg daily for 4 weeks, C57BL/6J mice
[6] = system: IL-6; assay: Plasma cytokine measurement; type: in vivo, mouse; conditions: 25 mg/kg daily for 4 weeks, C57BL/6J mice, vs vehicle
[7] = target: T1, MEK5 (Mus musculus, UniProt Q9WVS7); assay: KiNativ chemoproteomic kinase profiling in mouse heart lysate; type: binding; conditions: read-out: % inhibition of MEK5
T1 sequence (Q9WVS7 1-448): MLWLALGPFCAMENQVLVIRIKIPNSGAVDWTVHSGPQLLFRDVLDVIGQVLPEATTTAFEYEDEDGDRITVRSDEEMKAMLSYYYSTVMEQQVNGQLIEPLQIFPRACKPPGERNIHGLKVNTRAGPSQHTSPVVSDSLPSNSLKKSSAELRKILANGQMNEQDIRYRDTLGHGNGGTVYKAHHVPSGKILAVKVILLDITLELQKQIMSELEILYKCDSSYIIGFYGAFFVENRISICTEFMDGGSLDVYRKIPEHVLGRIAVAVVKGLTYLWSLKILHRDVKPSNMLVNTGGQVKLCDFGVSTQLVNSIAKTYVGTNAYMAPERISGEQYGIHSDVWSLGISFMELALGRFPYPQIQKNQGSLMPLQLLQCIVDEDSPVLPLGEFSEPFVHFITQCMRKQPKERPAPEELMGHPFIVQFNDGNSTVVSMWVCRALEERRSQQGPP

[8] = system: BTK^xid mice; conditions: 25 mg·kg−1·d−1 IP for 4 weeks, vs vehicle
[9] = system: TNFα; assay: Plasma cytokine measurement; type: in vivo, mouse; conditions: 25 mg/kg daily for 4 weeks, C57BL/6J mice, vs vehicle
[10] = target: FYN (Mus musculus, UniProt P39688); assay: KiNativ chemoproteomic kinase profiling in mouse heart lysate; type: binding; conditions: read-out: % inhibition of FYN
FYN, sequence (P39688 whole entry): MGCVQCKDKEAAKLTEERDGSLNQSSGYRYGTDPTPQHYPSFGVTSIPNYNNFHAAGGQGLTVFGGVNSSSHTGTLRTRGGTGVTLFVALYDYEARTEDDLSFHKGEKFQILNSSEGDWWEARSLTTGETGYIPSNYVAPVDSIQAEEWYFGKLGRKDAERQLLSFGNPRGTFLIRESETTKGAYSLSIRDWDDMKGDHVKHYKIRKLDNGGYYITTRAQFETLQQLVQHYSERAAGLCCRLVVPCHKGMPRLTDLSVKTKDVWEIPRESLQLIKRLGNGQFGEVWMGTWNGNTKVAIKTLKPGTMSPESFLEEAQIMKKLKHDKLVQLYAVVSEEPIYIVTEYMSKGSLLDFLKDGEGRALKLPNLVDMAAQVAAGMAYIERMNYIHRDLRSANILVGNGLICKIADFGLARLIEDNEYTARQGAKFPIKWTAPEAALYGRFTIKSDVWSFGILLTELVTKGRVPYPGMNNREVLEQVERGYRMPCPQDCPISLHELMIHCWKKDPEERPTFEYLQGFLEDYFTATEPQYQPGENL

[11] = system: mice; assay: Echocardiography and cardiac MRI of cardiac structure; type: in vivo, mouse
[12] = 25 mg/kg daily for 4 weeks, C57BL/6J mice, vs vehicle

SMILES: CN(C)Cc1cccc(N/C(=C2\C(=O)Nc3cc(C(N)=O)ccc32)c2ccccc2)c1 [BIX-02188]
AF inducibility ([1]; C57BL/6J mice, vs vehicle): did not lead to an increase in AF inducibility

AF inducibility ([1]; C57BL/6J mice, vs vehicle): did not cause AF
inhibition at 10 µM [2]: > 90%
% inhibition of CSK ([3]; 10 μM, 15 minutes, mouse heart lysate, ATP probe 20 μmol/L): do not inhibit CSK
inhibition at 10 µM [4]: > 90%
SMILES: CC#CC(=O)N1CCC[C@H]1c1nc(-c2ccc(C(=O)Nc3ccccn3)cc2)c2c(N)nccn12 [acalabrutinib]

expression of fibrosis markers fibronectin, and collagens 1α1 and 3α1 [5]: increased expression
circulating interleukin-6 (IL-6) [6]: elevated
inhibition at 10 µM [7]: > 90%
atrial effective refractory periods [1, 12]: prolonged
inducible AF ([1]; short duration exposure, mice): did not result in increased inducible AF
inhibition at 10 µM [2]: > 90%
inhibition at 10 µM ([3]; read-out: % inhibition of CSK): > 90%
AF inducibility [8]: significant increase in AF inducibility
inhibition at 10 µM [10]: > 90%
left ventricular ejection fraction ([11]; 25 mg/kg daily for 4 weeks, C57BL/6J mice, MRI): preserved
atrial dilation (LA size) [11, 12]: significant atrial dilation
LA enlargement (LA diameter by echocardiography) ([11]; BTK^xid mice, 25 mg·kg−1·d−1 IP for 4 weeks): LA enlargement
SMILES: C=CC(=O)N1CCC[C@@H](n2nc(-c3ccc(Oc4ccccc4)cc3)c3c(N)ncnc32)C1 [ibrutinib]
AF inducibility ([1]; C57BL/6J mice, vs vehicle): more inducible atrial fibrillation than vehicle injected mice
circulating tumor necrosis factor α (TNFα) [9]: elevated

AF inducibility ([1]; C57BL/6J mice, vs vehicle): did not result in increased AF
SMILES: CN1CCN(CCOc2cc(OC3CCOCC3)c3c(Nc4c(Cl)ccc5c4OCO5)ncnc3c2)CC1 [saracatinib]
